What was measured:
[1] = human, in vivo
[2] = system: resistance-associated variants in GT 1b (Con-1) replicon; experiment: Activity against resistance-associated variants in GT 1b replicon; assay type: cell-based, hepatitis C virus
[3] = system: GT1b replicon NS3 A156V variant; experiment: Resistant colony selection, GT1b subgenomic replicon cells; assay type: cell-based, hepatitis C virus; settings: A156V in GT1b
[4] = system: GT3a NS3 protease replicon Q168R co-selected with Y56H; experiment: Resistant colony selection, replicon containing GT3a NS3 protease (Q168R+Y56H); assay type: cell-based, hepatitis C virus
[5] = system: GT3a NS3 protease replicon A156G variant; experiment: Resistant colony selection, replicon containing GT3a NS3 protease (A156G); assay type: cell-based, hepatitis C virus; settings: A156G alone
[6] = assay type: in vivo, human; settings: for impact of HCV genotype and RBV coadministration on exposures: GT1-, GT2- or GT3-infected subjects
Description: Blood samples for pharmacokinetic analysis were collected throughout the study treatment period.

[7] = system: GT1a replicon NS3 A156T variant; experiment: Resistant colony selection, GT1a subgenomic replicon cells; assay type: cell-based, hepatitis C virus; settings: A156T in GT1a
[8] = system: resistance-associated variants in GT 1a (H77) replicon; experiment: Activity against resistance-associated variants in GT 1a replicon; assay type: cell-based, hepatitis C virus
[9] = Phase 1 drug-drug interaction with tacrolimus in healthy subjects; settings: coadministered with tacrolimus 1 mg
[10] = Phase 1 single and multiple ascending dose and food effect study of Compound 2 in healthy subjects
Description: This was a blinded, randomized, placebo-controlled Phase 1 study. […] Safety and tolerability were assessed throughout the study.

[11] = Phase 1 drug-drug interaction with cyclosporine in healthy subjects; settings: coadministered with cyclosporine 100 mg

C=CCN1CC[C@]23c4c5ccc(O)c4O[C@H]2C(=O)CC[C@@]3(O)[C@H]1C5 [naloxone]
dose-normalized Cmax and AUCt, change [1]: ≤ 12%

CC(C)(C)[C@@H]1NC(=O)O[C@@H]2CCC[C@H]2OC/C=C/C(F)(F)c2nc3ccccc3nc2O[C@@H]2C[C@@H](C(=O)N[C@]3(C(=O)NS(=O)(=O)C4(C)CC4)C[C@H]3C(F)F)N(C2)C1=O [Compound 1]
inhibitory activity against NS3 resistance-associated variants ([2]; T54A, R155K, D168V and V170A in GT 1b (Con-1)): nearly equivalent to that against wild-type HCV replicon
activity against variants at NS3 amino acid positions 155 and 168 ([2]; common GT1b variants conferring resistance to other HCV protease inhibitors): retained its activity
activity against NS5A inhibitor and NS5B inhibitor resistance-associated variants ([2]; e.g. L28T, Y93H, S282T, C316Y, Y448H and S556G in GT 1b): potent activity
reduced susceptibility conferred by variant [3]: 1800 fold
loss in susceptibility conferred by variant [4]: 1100 fold
loss in susceptibility conferred by variant [5]: 1500 fold
impact of HCV genotype and RBV coadministration on exposures [6]: no impact
impact of Compound 2 on Compound 1 exposures ([6]; coadministration): minimal impact
reduced susceptibility conferred by variant [7]: 1400 fold
inhibitory activity against NS3 resistance-associated variants ([8]; V36M, R155K, D168A and D168V in GT 1a (H77)): nearly equivalent to that against wild-type HCV replicon
activity against variants at NS3 amino acid positions 155 and 168 ([8]; common GT1a variants conferring resistance to other HCV protease inhibitors): retained its activity
activity against NS5A inhibitor and NS5B inhibitor resistance-associated variants ([8]; e.g. M28T, M28V, Q30D, Q30R, Y93C, Y93H, Y93N, L31V+Y93H, C316Y, M414T, Y448C, Y448H, S556G and S559G in GT1a): potent activity

COC(=O)N[C@H](C(=O)N1CCC[C@H]1c1nc2cc([C@H]3CC[C@H](c4cc5nc([C@@H]6CCCN6C(=O)[C@@H](NC(=O)OC)[C@@H](C)OC)[nH]c5cc4F)N3c3cc(F)c(N4CCC(c5ccc(F)cc5)CC4)c(F)c3)c(F)cc2[nH]1)[C@@H](C)OC [Compound 2]
steady-state Cmax, AUC24, and C24 in plasma, change [9]: ≤ 2%
severity of adverse events ([10]; SAD 1.5-600 mg, MAD 30-600 mg QD 10 days): mild
maximum tolerated dose ([10]; SAD and MAD portions): not reached
impact of HCV genotype and RBV coadministration on exposures [6]: no impact
steady-state AUC24 in plasma, increase [11]: 22%
steady-state C24 in plasma, increase [11]: 26%
steady-state Cmax in plasma, increase [11]: 11%
